Experiment in all cases: NCI-60 cell line screen, 48 h
Assay [1] concerns NCI-H460 lung.
Assay [2] deals with A498 renal.
In assay [3] the test system is SNB-19 CNS.
Assay [4] concerns SR leukemia.
The test system of assay [5] is SK-OV-3 ovarian.
For assay [6], the system named is HOP-92 NSCLC.
Assay [7] relates to CCRF-CEM leukemia.
The subject of assay [8] is COLO 205 colon.
The subject of assay [9] is HT29 colon.
For assay [10], the system named is TK-10 renal.

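96-well plates; 48 h exposure; 5 concentrations. Endpoints by linear interpolation between flanking doses. Not reached: highest tested concentration assigned. The concentration for 50% growth inhibition is given as GI50. At the TGI there is no net growth.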 Bounds are passed on as bounds.

Turning to `CCCCn1c(=O)[nH]c(N)c([C@@H]2c3c([nH]c(=O)n(CCCC)c3=O)Oc3ccc4ccccc4c32)c1=O`, the GI50 in assay [1] is 2.19 µM; in assay [2] it was 13.7 µM; in [3] it was 1.72 µM; in assay [4], 0.458 µM; in assay [5], 2.74 µM; in assay [6], 2 µM. Also, the GI50 is 0.326 µM in assay [7], 2 µM in assay [8], 2.46 µM in [9] and 2.95 µM in assay [10]. Besides, the TGI came to 5.05 µM in assay [1]; 27.8 µM in [2]; 3.36 µM in assay [3]; 15.8 µM in assay [4]; 11.9 µM in assay [5]; 6.5 µM in [6]. For the same compound, the TGI in assay [7] was found to be 1.38 µM; in assay [8], 4.03 µM; in assay [9] it was 4.73 µM; in assay [10], 7.05 µM.
For `O=C1NC(=O)C(c2c[nH]c3ccccc23)=C1c1c[nH]c2ccccc12`, the GI50 in [1] is 10.6 µM; in assay [2], 3.34 µM; in assay [3], more than 25 µM; in assay [4], 6.87 µM; in [5], 13.5 µM; in assay [6], 5.72 µM. In addition, the GI50 in assay [7] is 10.5 µM; in assay [8] it was 9.18 µM; in [9], 11.2 µM; in assay [10], 19.2 µM. Further, the TGI in [1], in [2], in assay [3], in assay [4], in [5] and in assay [6] was more than 25 µM in each case. Moreover, the TGI in assay [7], in [8], in [9] and in assay [10] was more than 25 µM each time.
`CCN(Cc1ccc(OC)cc1)c1ccc(CO)c(Cl)c1`: the GI50 in [1] is 0.317 µM; in assay [2], 0.0306 µM; in assay [3], 26.8 µM; in assay [4] it was 24.7 µM; in assay [5], 6.7 µM; in assay [6], 2.17 µM. Moreover, the values for the GI50 in assay [7], in assay [8] and in assay [9] were 23.9 µM, 0.451 µM and 2.07 µM, respectively. The TGI in assay [1] was 14.6 µM; in [2], 0.168 µM; in [3], more than 100 µM; in [4], more than 72.5 µM; in [5] it was 30.8 µM; in assay [6] it was 20.7 µM. For the same compound, the results for the TGI in [7], in assay [8] and in assay [9] were more than 83.3 µM, 3.31 µM and 17.3 µM, respectively.
Regarding `CN(C)CCC(N)(P(=O)([O-])[O-])P(=O)([O-])[O-].N.N.[Pt+2]`, the GI50 in assay [2], in assay [3], in assay [4], in [6], in assay [7] and in assay [8] was more than 100 µM in each case. The GI50 in assay [9] and in assay [10] was more than 100 µM in each case. Also, the TGI in assay [2], in [3], in assay [4], in assay [6], in assay [7] and in assay [8] was more than 100 µM throughout. Besides, the TGI in assay [9] and in [10] was more than 100 µM throughout.
On to `C=CCc1cccc(C=O)c1O`, for which the GI50 was more than 100 µM in assay [1]; 14.6 µM in assay [3]; 22 µM in assay [4]; more than 100 µM in [5]; 0.809 µM in assay [6]; 4 µM in assay [7]. Further, the GI50 in assay [8] is more than 100 µM; in [9], 67.9 µM; in [10] it was more than 100 µM. Further, the TGI in assay [1] is more than 100 µM; in assay [3], more than 100 µM; in assay [4], more than 100 µM; in assay [5], more than 100 µM; in assay [6], 59 µM; in assay [7], more than 100 µM. Besides, the TGI in [8], in assay [9] and in [10] was more than 100 µM throughout.
Consider `O=C([CH-]C(=O)c1ccccc1)c1ccccc1.O=C([CH-]C(=O)c1ccccc1)c1ccccc1.O=C([CH-]C(=O)c1ccccc1)c1ccccc1.[Ga+3]`, for which the GI50 in assay [1] is 16.3 µM; in assay [2] it was 56.8 µM; in [3], more than 100 µM; in [4], 9.53 µM; in assay [5], 63.5 µM; in [6], more than 100 µM. Also, the GI50 is more than 100 µM in [8], 88.8 µM in assay [9] and more than 100 µM in [10]. Besides, the TGI in [1], in [2], in [3], in assay [4], in assay [5] and in [6] was more than 100 µM in each case. In addition, the TGI in assay [8], in assay [9] and in assay [10] was more than 100 µM in each case.
`CCN1CCN(CCC(=O)Nc2cccc(-n3cc(-c4ccncc4)c(-c4ccc(Cl)c(OC)c4)n3)c2)CC1`: the GI50 in assay [1] is 0.361 µM; in assay [2] it was 0.676 µM; in [3], 1.08 µM; in [4] it was 0.433 µM; in [5], 1.84 µM; in assay [6], 0.776 µM. Besides, the GI50 in assay [7] is 0.374 µM; in assay [9], 0.381 µM; in assay [10], 1.75 µM. Moreover, the TGI worked out at 1.37 µM in assay [1]; 2.74 µM in [2]; 5.61 µM in assay [3]; 2.37 µM in assay [4]; 7.67 µM in [5]; 6.43 µM in [6]. The TGI in assay [7] came to 10.3 µM; in assay [9] it was 1.22 µM; in assay [10], 5 µM.
Consider `O=S(=O)(NCCCNc1cc(-c2cn(-c3ccccc3)nc2-c2cccc(O)c2)ccn1)c1ccc(C(F)(F)F)cc1`, for which the GI50 was 1.86 µM in assay [1]; 1.1 µM in assay [2]; 2.04 µM in [3]; 1.78 µM in assay [4]; 2.39 µM in assay [5]; 1.56 µM in [6]. Besides, the GI50 in assay [8] is 1.78 µM; in [9] it was 1.23 µM; in [10], 3.32 µM. In addition, the TGI in assay [1] came to 3.86 µM; in assay [2], 2.64 µM; in assay [3], 5.55 µM; in assay [4], 5.83 µM; in assay [5] it was 5.95 µM; in assay [6], 3.9 µM. In addition, the TGI in assay [8] was determined as 3.54 µM; in assay [9], 3.18 µM; in [10], 9.84 µM.

The record behind these values is PubChem BioAssay (NCI).
